Laboratory results: patent US9789095B2, “Inhibitors of calcium-activated chloride channels” (The Regents of the University of California, priority 2007, dated 2017)

What was measured:
[1] = biological target: T1, human wildtype CFTR (Homo sapiens, UniProt P13569); experiment: Iodide influx in FRT cells expressing human wildtype CFTR; type: cell-based; settings: 20 μM
T1 construct: expressed in transfected cells; host or cells: Fisher rat thyroid (FRT) cells
Experimental: Cystic Fibrosis Transmembrane Conductance Regulator (CFTR) Experiments were performed to determine whether the compounds affected CFTR because CFTR is a major intestinal chloride channel and evidence exists for cross-talk between cAMP and calcium signaling in intestinal cell chloride secretion (Schultheiss et al., Eur. J. Pharmacol. 546:161-70 (2006); Takahashi et al., J. Med. Microbiol. 49:801-10 (2000); Chao et al., EMBO J. 13:1065-72 (1994)). As described (Ma et al., J. Clin. Invest. 110:1651-8 (2002)), FRT cells expressing human wildtype CFTR and YFP-H148Q/I152L, at 100% confluence, were washed 3 times with PBS, leaving 60 μL. CFTR was activated by a cocktail containing forskolin (20 μM), genistein (50 μM), and isobutylmethylxanthine (100 μM). Iodide influx as described in Example 1 was measured at 10 min after addition of test compounds by determining YFP fluorescence for 2 s before and 20 s after addition of 165 μl of PBS-iodide.

[2] = test system: CaCC in T84 cells; experiment: Short-circuit current (chloride secretion) in T84 cell monolayers; type: cell-based, human
Experimental: ATP/carbachol were used to induce calcium-dependent chloride secretion in well-differentiated T84 cell monolayers. T84 cells were seeded at a density of 10^5 cm^−2 on permeable supports (Snapwell, 1.12 cm^2 surface area) and grown until confluent. Supports containing confluent cell monolayers were mounted in Snapwell diffusion chambers. Cells were bathed for a 30 min stabilization period in HCO3^−-buffered solution containing (mmol/L): 120 NaCl, 5 KCl, 1 MgCl2, 1 CaCl2, 10 D-glucose, 5 HEPES, and 25 NaHCO3 (pH 7.4), aerated with 95% O2/5% CO2 at 37° C. Monolayers were voltage-clamped at 0 mV (EVC4000 Multi-Channel V/I Clamp, World Precision Instruments), and short-circuit current (Isc) was recorded continuously with agonists/inhibitors added at specified times.

[3] = Aqueous solubility in PBS by optical absorbance of a saturated solution; type: physicochemical; settings: aqueous buffer, thermodynamic from solid
Source text: The high aqueous solubility is a consequence of their polarity and negative charge at physiological pH.

[4] = test system: CaMKII phosphorylation; experiment: CaMKII phosphorylation immunoblot in HT-29 cells; type: cell-based; settings: 30 μM pretreatment, ATP/carbachol
Source text: CaMKII Regulation of CaCC activation by CaMKII occurs in a cell type-dependent manner (Hartzell et al., Annu. Rev. Physiol. 67:719-58 (2005)). CaMKII has been reported to regulate calcium-activated chloride current in HT-29 and T84 cells (Worrell et al., Am. J. Physiol. 260:C877-82 (1991); Morris et al., Am. J. Physiol. 264:C977-85 (1993); Chan et al., J. Biol. Chem. 269:32464-8 (1994); Braun et al., J. Physiol. 488:37-55 (1995)). To determine whether the CaCC inhibitors interfered with ATP/carbachol-induced CaMKII activation, CaMKII phosphorylation in HT-29 cells was measured by immunoblot analysis. Calcium/calmodulin-dependent protein kinase II (CaMKII) was activated by 2 min treatment of HT-29 cells with ATP/carbachol (each 100 μM). Cells were then lysed with cell lysis buffer (20 mM Tris-HCl (pH 7.4), 1% Triton X-100, 150 mM NaCl, 2 mM EDTA, 50 mM α-glycerolphosphate, 1 mM Na3VO4, 1 mM DTT, and complete protease inhibitor mixture (Roche Applied Science)). Cell debris was removed by centrifugation, and proteins in the supernatant were resolved by SDS-PAGE and immunoblotted using standard procedures (transfer to PDVF membrane, 1 h blocking in 5% nonfat dry milk, primary/secondary antibody incubations, enhanced chemiluminescence detection). Rabbit polyclonal antibodies for anti-phospho-CaMKII (Thr286) and β-actin were purchased from Cell Signaling Technology (Danvers, Mass.).

[5] = test system: calcium-activated chloride channel (CaCC); experiment: YFP fluorescence plate reader iodide influx assay in HT-29 cells (ATP/carbachol); type: cell-based, human; settings: semi-quantitative
Experimental: Screening was performed using a customized screening system (BECKMAN COULTER, Inc., Indianapolis, Ind.) consisting of the SAGIAN Core system integrated with SAMI software, and equipped with an ORCA arm for labware transport, a 96-channel head BIOMEK FX, CO2 incubator, plate washer, bar code reader, delidding station, and two FLUOstar OPTIMA fluorescence plate readers (BMG Labtechnologies, Durham, N.C.), each equipped with syringe pumps and custom excitation/emission filters (500/544 nm; CHROMA, Brattleboro, Vt.).
HT-29 cells expressing YFP-H148Q/I152L were plated in 96-well plates at 70% confluence. Plates were incubated overnight at 37° C., 5% CO2 and then the growth medium was replaced with fresh growth medium. […] YFP fluorescence was measured 1 s before and for 30 s after addition of a PBS-iodide solution (PBS that has 100 mM chloride replaced by iodide) containing carbachol and ATP (100 μM each). Each 96-well plate contained ‘positive’ controls (DMSO vehicle without agonists or test compounds) and ‘negative’ controls (DMSO vehicle with agonists but without test compounds). In some experiments solutions included (individually or in combination): carbachol, ATP, or histamine (at 50, 100, 150 or 200 μM), calcimycin (10 μM), thapsigargin (2 μM) and CFTRinh-172 (20 μM).
Iodide influx (d[I^−]/dt at t=0) was computed from fluorescence time course data by single exponential regression, as described (Ma et al., J. Clin. Invest. 110:1651-8 (2002)). Percentage inhibition was computed as: percentage inhibition=100×(Slopenegative control−Slopetest compound)/(Slopenegative control−Slopepositive control).

[6] = test system: calcium-activated chloride channel (CaCC); experiment: Whole-cell patch-clamp of calcium-dependent chloride current in HT-29 cells; type: cell-based, human; settings: for calcium-dependent chloride current reduced: 1 μM ionomycin, HT-29; for ionomycin-induced chloride currents, symmetric NMDG-Cl solutions: whole-cell, pretreatment
Experimental: Whole cell recordings were accomplished with HT-29 cells at room temperature. The pipette solution contained (in mM): 30 CsCl, 100 Cs-aspartate, 1 MgCl2, 0.5 EGTA, 2 Tris-ATP, and 10 HEPES (pH 7.2 with CsOH), and the bath solution contained (in mM) 140 N-methyl-D-glucamine chloride (NMDG-Cl), 1 CaCl2, 1 MgCl2, 10 glucose, and 10 HEPES (pH 7.2). In one set of studies, symmetric NMDG-Cl solutions contained 140 mM NMDG-Cl, 1 mM MgCl2, 0.5 mM EGTA, 2 mM Tris-ATP, and 10 mM HEPES, pH 7.2. Pipettes were pulled from borosilicate glass and had resistances of 3-5 MΩ after fire polishing. Seal resistances were typically between 3-10 GΩ. After establishing the whole cell configuration, CaCCs were activated by 1 μM ionomycin. Whole cell currents were elicited by applying hyperpolarizing and depolarizing voltage pulses from a holding potential of 0 mV to potentials between −120 mV and +120 mV in steps of 20 mV. Currents were filtered at 5 kHz, and digitized and analyzed using an AxoScope 10.0 system and a Digidata 1440A […] (Molecular Devices, Sunnyvale, Calif.). Mean currents were expressed as current densities (picoampere per picofarad (pA/pF)).

[7] = test system: agonist-induced [Ca2+]i elevation; experiment: Cytoplasmic calcium measurement by Fura-2 fluorescence in HT-29 cells; type: cell-based, human; settings: pretreatment at high concentration prior to agonist
Experimental: [Ca^2+]i was measured in confluent monolayers of HT-29 cells after loading with Fura-2 (2 μM Fura-2-AM, 30 min, 37° C.). Labeled cells were mounted in a perfusion chamber on the stage of an inverted epifluorescence microscope. Cells were superfused with (in mM): 140 NaCl, 5 KCl, 1 MgCl2, 1 CaCl2, 10 D-glucose, and 10 HEPES (pH 7.4), initially without and then with ATP/carbachol. Test compounds were present in some experiments for 10 min prior to agonist addition. Fura-2 fluorescence was recorded at excitation wavelengths of 340 nm and 380 nm using standard procedures

T1 sequence (P13569 whole entry): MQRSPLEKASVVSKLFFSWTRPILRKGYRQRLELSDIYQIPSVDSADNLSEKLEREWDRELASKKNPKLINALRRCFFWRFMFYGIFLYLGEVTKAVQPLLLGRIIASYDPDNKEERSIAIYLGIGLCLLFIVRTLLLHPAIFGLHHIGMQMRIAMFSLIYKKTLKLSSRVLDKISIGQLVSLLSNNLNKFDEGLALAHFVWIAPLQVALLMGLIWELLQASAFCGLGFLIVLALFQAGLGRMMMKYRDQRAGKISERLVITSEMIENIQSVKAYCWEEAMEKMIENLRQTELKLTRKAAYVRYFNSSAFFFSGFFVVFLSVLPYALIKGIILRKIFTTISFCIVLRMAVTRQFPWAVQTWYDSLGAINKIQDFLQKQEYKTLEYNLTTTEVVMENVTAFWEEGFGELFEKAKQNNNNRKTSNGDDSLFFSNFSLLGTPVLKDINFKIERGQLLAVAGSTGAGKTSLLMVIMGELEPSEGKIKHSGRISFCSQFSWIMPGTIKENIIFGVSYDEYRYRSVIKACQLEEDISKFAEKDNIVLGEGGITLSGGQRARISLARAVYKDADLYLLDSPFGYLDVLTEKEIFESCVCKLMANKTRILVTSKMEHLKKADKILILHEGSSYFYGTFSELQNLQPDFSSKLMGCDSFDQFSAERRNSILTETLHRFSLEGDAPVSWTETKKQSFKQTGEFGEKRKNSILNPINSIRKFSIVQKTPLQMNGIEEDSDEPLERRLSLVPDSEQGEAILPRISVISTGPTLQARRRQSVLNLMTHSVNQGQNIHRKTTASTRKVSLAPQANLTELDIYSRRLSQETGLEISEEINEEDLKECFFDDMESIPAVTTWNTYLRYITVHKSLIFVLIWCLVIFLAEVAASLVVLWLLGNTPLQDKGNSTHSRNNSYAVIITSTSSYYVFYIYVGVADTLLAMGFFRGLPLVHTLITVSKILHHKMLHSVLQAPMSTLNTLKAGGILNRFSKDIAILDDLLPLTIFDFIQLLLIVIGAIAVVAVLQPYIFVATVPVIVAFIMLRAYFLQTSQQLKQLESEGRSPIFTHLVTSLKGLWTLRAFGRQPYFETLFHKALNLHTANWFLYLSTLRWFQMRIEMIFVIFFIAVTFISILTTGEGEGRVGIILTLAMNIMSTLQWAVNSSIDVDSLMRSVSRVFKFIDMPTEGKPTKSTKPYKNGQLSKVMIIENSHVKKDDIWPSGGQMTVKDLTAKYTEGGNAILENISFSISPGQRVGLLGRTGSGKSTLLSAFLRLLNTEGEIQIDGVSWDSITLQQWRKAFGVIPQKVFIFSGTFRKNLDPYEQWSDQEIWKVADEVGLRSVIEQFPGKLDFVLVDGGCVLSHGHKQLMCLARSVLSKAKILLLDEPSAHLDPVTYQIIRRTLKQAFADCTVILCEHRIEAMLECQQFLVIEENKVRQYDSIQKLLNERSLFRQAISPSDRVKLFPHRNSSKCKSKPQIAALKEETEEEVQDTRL

CFTR inhibition (iodide influx), positive control [1] | solubility [3] [µM] | Compound | ATP-induced short-circuit current reduced ([2]; 10 μM compound) [%] | ATP-induced short-circuit current reduced ([2]; 30 μM compound) [%] | agonist-induced CaMKII phosphorylation [4] | % inhibition at 25 μM ([5]; class A aminothiophenes) [%] | calcium-dependent chloride current reduced ([6]; 0.1 μM compound) [%] | calcium-dependent chloride current reduced ([6]; 1 μM compound) [%] | calcium-dependent chloride current reduced ([6]; 10 μM compound) [%] | ionomycin-induced chloride currents, symmetric NMDG-Cl solutions [6] | ATP or carbachol-induced [Ca2+]i elevations [7] | % inhibition at 25 μM ([5]; class B aminothiazoles) [%]
inhibition | – | O=C(O)c1ccc(C=C2SC(=S)N(c3cccc(C(F)(F)F)c3)C2=O)cc1 [CFTRinh-172, 3-[(3-trifluoromethyl)phenyl]-5-[(4-carboxyphenyl)methylene]-2-thioxo-4-thiazolidinone, reference compound] | – | – | – | – | – | – | – | – | – | –
– | > 500 | CC(C)(C)C1CCc2c(sc(NC(=O)c3ccco3)c2C(=O)O)C1 (centres unmarked) [CaCCinh-A01, 6-tert-butyl-2-(furan-2-carboxamido)-4,5,6,7-tetrahydrobenzo[b]thiophene-3-carboxylic acid] | 38±7 | 78±3 | did not significantly affect | 100 | 38±14 | 66±10 | 91±1 | reduced ionomycin-induced currents | did not significantly reduce | –
– | – | 2-hydroxy-5-(4-p-tolylthiazol-2-ylamino)benzoic acid [CaCCinh-B01] | 29±11 | 64±3 | did not significantly affect | – | 11±7 | 34±12 | 77±4 | reduced ionomycin-induced currents | did not significantly reduce | 100
